Data from US9376700B2, “Methods of modifying N-termini of a peptide or protein using transferases” (The Trustees of the University of Pennsylvania, priority 2012, dated 2016).
Where “and” joins values, the source holds several entries; their conditions need not be identical. Identical values can stand only once. Entries after “also recorded” stand apart in the source; their conditions may differ. Like-named read-outs stand apart in the source and are kept apart here.

Legend:
[1] = target: T1, E. coli aminoacyl transferase (AaT) (Escherichia coli, UniProt P0A8P1); experiment: LysAlaAcm ligation assay: AaT-catalyzed transfer from aminoacyl adenosine donor to LysAlaAcm, HPLC at 325 nm; format: biochemical; parameters: made in house; host or cells: E. coli BL21-Gold (DE3), plasmid pEG6, Ni-NTA purified; details: for Ligated Product Yield (%): 4 h
Procedure: Each ligation reaction, 125 μL total volume, contained the following reagents: aminoacyl adenosine donor (1 mM), recombinant His10-tagged E. coli aminoacyl transferase (2.26 μM), and LysAlaAcm (100 μM) in the AaT Ligation Buffer (50 mM HEPES pH 8.0, 150 mm KCl, 10 mM MgCl2). The reaction mixtures were incubated at 37° C. for four hours and quenched with 1% acetic acid. The proteins were extracted from the reactions via acetone precipitation. The reactions were precipitated using 4× reaction volume of acetone and cooled at −20° C. for 1 h. Next, the reactions were centrifuged at 13,200 rpm at 4° C. for 20 min to separate the reaction from precipitated protein. The supernatant was transferred to fresh 1.5 mL centrifuge tubes and allowed for acetone evaporation overnight at room temperature. After acetone evaporation, the supernatant was dried in a Speedvac (Savant, Thermo Scientific, Fisher Inc.) for 30 min to remove residual acetone. The resulting reaction volume was dissolved up to 1.2 mL using Milli-Q water and analyzed by HPLC (gradient below) to determine ligation yield by integration of separated peak intensities monitored at 325 nm. Collected HPLC fractions were characterized through MALDI MS analysis. […] Reactions using Phe-pdCpA as donor were carried out in an identical fashion (Ellman, et al., 1991, Methods Enzymol. 202:301-336).
All HPLC analyses of LysAlaAcm ligations were monitored on an Agilent HPLC using a Waters C18 column (Milford, Mass.).
All HPLC analyses of LysAlaAcm ligations were monitored as described elsewhere herein (Gradient 1).
The extent of transfer was evaluated by HPLC analysis of reactions with adenosyl donor, AaT or BpT, and an aminocoumarin-labeled reporter peptide (for AaT, LysAlaAcm was used as previously described by Tirrell and co-workers; for BpT, AspAlaAcm was used in an analogous fashion) (Connor et al., 2008, ChemBioChem 9:366-369). Monitoring LysAlaAcm or AspAlaAcm acylation in crude reaction mixtures using absorbance at 325 nm conveniently eliminates background due to other proteins and nucleic acids, although some non-natural amino acids such as naphthylalanine (Nap) and methoxycoumarinylalanine (Mcm) also absorb in this range.
To evaluate substrate scope, reactions were analyzed after 4 h, when transfer should be complete for the fully enzymatic reaction with Phe tRNA synthetase (Connor et al., 2008, ChemBioChem 9:366-369).

[2] = HPLC analysis of donor hydrolysis in mock LysAlaAcm reactions without enzyme; format: physicochemical; details: mock reaction without AaT, AaT Ligation Buffer pH 8.0, 37° C., after 4 h
Procedure: The amino acid analog donor (4a-4z) was suspected to be hydrolytically unstable and was tested in mock LysAlaAcm reactions without enzyme present and then analyzed by HPLC. The mock LysAlaAcm reactions were performed as described in the LysAlaAcm Ligation Assay section; however, the AaT solution was replaced with water. Phe-A solutions were analyzed at 30 min, 1 h, and 4 h. Immediately following the reaction, the sample was diluted to 1,200 μL and injected onto the C18 HPLC column using Gradient 1. […] Additionally, 1 mM A and 1 mM Phe were injected on the HPLC to serve as standards to verify retention times. Note that the relative concentrations of 2′ and 3′ Phe-A would be different in an actual reaction where the 3′ Phe-A is preferentially consumed by AaT in the transfer reaction (Watanabe et al., 2007, Nature 449:867-871). The change in 2′:3′ ratio between 0 h and 30 min probably reflected the higher pH of the 30 min data (Taiji et al., 1983, Biochemistry 22:3220-3225).

[3] = target: T2, E. coli aminoacyl tRNA transferase (AaT) (Escherichia coli, UniProt P0A8P1); experiment: AaT-catalyzed α-casein N-terminal modification (Edman degradation, tryptic digest MALDI MS); format: biochemical; details: Phe donor, additional dose at 4 h, overnight
T2 construct: made in house; host or cells: E. coli BL21-Gold (DE3), plasmid pEG6, Ni-NTA purified
Procedure: HEPES pH 8.0, 1.50 mM KO, 10 mM MgCl2) and AaT (0.05 mg). The reaction mixture was incubated at 37° C. for 12 h, AaT was removed using Ni^2+ resin (Ni-NTA Superflow, Qiagen), and then buffer exchanged four times into phosphate buffered saline (PBS, 12 mM NaH2PO4, 50 mM NaCl, 4.7 mM KCl, pH 8.0) by Spectra/Por 1 dialysis tubing (Spectrum Laboratories; Rancho Dominguez, Calif.). Azf-modified α-casein was used directly after buffer exchange into PBS. Aliquots (1 nmol) of α-casein were diluted into PBS (22 μL) containing either fluorescein-alkyne (FlAlk, 91 μM) or propargylamine (Alk, 227 μM) for copper-catalyzed azide-alkyne cycloaddition (CuAAC). […] Reactions were boiled with gel loading dye LDS (Pierce; Rockford, Ill.) for 10 min at 95° C. and analyzed by SDS-PAGE. Fluorescence images were obtained with a Geldoc (BioRAD; Hercules, Calif.) using an excitation wavelength of 302 nm for detection of fluorescein. α-Casein was also directly visualized by Coomassie Brilliant Blue staining.
α-Casein-Azf (33 or α-casein (33 μg) was digested with sequencing grade modified Trypsin (0.6 μg) in 27 μL of 25 mM ammonium bicarbonate pH 7.5 (freshly prepared). Digestions were carried out at 37° C. for 14 h. Trypsin digest aliquots (1 μL) were combined with α-cyano-4-hydroxycinnamic acid (1 μL of a saturated solution in 1:1 H2O/CH3CN with 1% TFA) and analyzed by MALDI MS. […]

[4] = target: T1, E. coli aminoacyl transferase (AaT)
Procedure: The LysAlaAcm ligation assay was used to analyze the kinetics of AaT with substrate 4a. The ligation assay was modified for ease of analysis as follows: The total reaction volume was scaled up to 590 μL and all reagents were maintained at the same concentrations as mentioned above, Five concentrations of 4a were monitored for a total reaction time of 30 min, with concentrations ranging from 0.05 to 1 mM.
Each 30 min kinetic experiment was done in triplicate with a total of fourteen 40 μL aliquots for all substrate concentrations.
Therefore, the reaction was characterized in terms of the Michaelis-Menten kinetic scheme in Equation 2.
To determine initial velocities, the primary kinetic data is fit to the hyperbolic Equation 3, which, though phenomenological, produces a high quality fit (R>0.99 for all 5 data sets). Data from the first two minutes were fit to a linear expression (Equation 4). A non-zero intercept is employed for improved quality of fit; this can be justified in terms of a rapid burst phase not captured in the 1 min resolution of this assay.
The initial velocities were then plotted as a function of Phe-A donor concentration and fit to Equation 5 to obtain kcat and KM values, where KM=(k−1+kcat)/k1 as depicted in FIG. 3B.
To characterize the enzymatic activity of AaT toward the present acyl adenosyl substrates, an HPLC assay was used to determine initial reaction rates to be fit to a standard Michaelis-Menten kinetic model.

[5] = target: T1, E. coli aminoacyl transferase (AaT); experiment: A/AMP/ATP/pdCpA inhibition studies of ligation with Phe donor 4a; format: biochemical; parameters: made in house; host or cells: E. coli BL21-Gold (DE3), plasmid pEG6, Ni-NTA purified
Procedure: Each ligation reaction was performed as described elsewhere herein.
To better understand limitations on the yield from AaT reactions, the possibilities of inhibition by hydrolyzed substrate or aminoacylated product were assessed. Since the acyl adenosine donor substrate is not regenerated during the reaction (unlike the aaRS/tRNA/AaT reaction), it was hypothesized that the adenosine byproduct might inhibit further acylation by binding to AaT. To investigate this possibility, adenosine was added to the reaction at varying concentrations and monitored the reaction timecourse by fluorescence spectroscopy and by HPLC.

[6] = target: T1, E. coli aminoacyl transferase (AaT); experiment: Real time fluorometric monitoring of Nap transfer from 4d to LysAlaAcm; format: biochemical; parameters: made in house; host or cells: E. coli BL21-Gold (DE3), plasmid pEG6, Ni-NTA purified; details: up to 1 mM exogenous adenosine, real time fluorescence
Procedure: Real time fluorescent monitoring of Nap addition to LysAlaAcm was carried out using reaction solutions prepared on the 500 μL scale in stirred quartz cuvettes with 1.00 cm path lengths. Reagent concentrations were as described elsewhere herein, except that donor 4d was withheld until the cuvette was placed in the fluorometer and temperature equilibrated. Reactions were then initiated by addition of 20 μL of 25 mM Nap-A (4d) stock or water (for negative controls). Fluorescence emission at 390 nm was monitored after excitation at 325 nm. Prior calibration had shown that NapLysAlaAcm (5d) concentrations could be estimated from fluorescence intensity readings (F5d) using the equation [5d]=(1−(F5d/FControl))1.39[LysAlaAcm], where fControl is the fluorescence reading of the reaction with water added instead of 4d. […]
In order to monitor conversion of LysAlaAcm to NapLysAlaAcm (5d) in real time, a fluorometric assay was designed based on intramolecular quenching of aminocoumarin fluorescence by the naphthyl ring. Equimolar solutions of LysAlaAcm and NapLysAlaAcm, as well as mixtures of the two solutions, were prepared and their fluorescence was compared as depicted in FIG. 18A. […]
The present experiment was also achieved to monitor product formation in real time based on partial quenching of coumarin fluorescence upon addition of Nap to the LysAlaAcm peptide to form 5d. […]

[7] = 100 μM LysAlaAcm, 0.05 to 1 mM donor

T1 sequence (P0A8P1 whole entry): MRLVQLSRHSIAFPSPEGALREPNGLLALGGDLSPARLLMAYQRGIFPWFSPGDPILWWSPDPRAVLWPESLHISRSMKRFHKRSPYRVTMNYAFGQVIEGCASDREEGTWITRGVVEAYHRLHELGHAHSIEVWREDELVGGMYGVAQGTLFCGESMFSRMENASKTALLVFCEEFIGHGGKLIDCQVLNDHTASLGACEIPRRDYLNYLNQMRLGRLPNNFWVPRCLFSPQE
T2 sequence (P0A8P1 whole entry): as above

Structure (SMILES): Nc1ncnc2c1ncn2[C@@H]1O[C@H](CO)[C@@H](O)[C@H]1OC(=O)[C@@H](N)Cc1ccccc1 [4a, (S)-(2R,3R,4R,5R)-2-(6-Amino-9H-purin-9-yl)-4-hydroxy-5-(hydroxymethyl)tetrahydrofuran-3-2-amino-3-phenylpropanoate]
- Transfer to LysAlaAcm by AaT (in words) ([1]; reactions analyzed after 4 h): transferred efficiently
- Conversion of LysAlaAcm after a second addition of donor ([1]; second addition of 1 mM 4a): completion
- Ligated Product Yield (%) ([1]; single addition of 1 mM donor, 100 μM LysAlaAcm, 2.26 μM AaT, 37° C., no additive): 92% and 92.7 ± 5.2%
- Ligated Product Yield (%) ([1]; single addition of donor, additive 1 mM pdCpA): 90.4 ± 0.9%
- Donor hydrolysis [2]: completely hydrolyzed
- Modification of α-casein N-terminus, Edman degradation [3]: quantitative addition of Phe
- Km [4, 7]: 124 µM
- kcat [4, 7]: 1.68±0.09×10^−1 s^−1
- Km ([4]; restated in μM): 124 µM

Structure (SMILES): Nc1ncnc2c1ncn2[C@@H]1O[C@H](CO)[C@@H](O)[C@H]1O [adenosine]
- Inhibition of addition from the Phe donor 4a ([5]; 5 mM added): not inhibited
- Ki ([5]; Phe donor 4a transfer reaction): > 5 mM
- Inhibition of Nap transfer to LysAlaAcm from 4d [6]: did not significantly inhibit; also recorded: No significant inhibition
